Experimental data reported in patent US8946231B2, “P2X3, receptor antagonists for treatment of pain” (Merck Sharp & Dohme Corp., priority 2009, dated 2015).

molecular target: T1, human P2X3 (Homo sapiens, UniProt P56373); assay: Intracellular Calcium Measurement to Assess Antagonist Affinity (FLIPR, Fluo-4); assay type: cell-based; conditions: cells expressing human P2X3; agonist α,β-meATP at EC50; antagonist added 10 min before agonist
T1 construct: expressed in transfected cells
T1 sequence (P56373 1-397): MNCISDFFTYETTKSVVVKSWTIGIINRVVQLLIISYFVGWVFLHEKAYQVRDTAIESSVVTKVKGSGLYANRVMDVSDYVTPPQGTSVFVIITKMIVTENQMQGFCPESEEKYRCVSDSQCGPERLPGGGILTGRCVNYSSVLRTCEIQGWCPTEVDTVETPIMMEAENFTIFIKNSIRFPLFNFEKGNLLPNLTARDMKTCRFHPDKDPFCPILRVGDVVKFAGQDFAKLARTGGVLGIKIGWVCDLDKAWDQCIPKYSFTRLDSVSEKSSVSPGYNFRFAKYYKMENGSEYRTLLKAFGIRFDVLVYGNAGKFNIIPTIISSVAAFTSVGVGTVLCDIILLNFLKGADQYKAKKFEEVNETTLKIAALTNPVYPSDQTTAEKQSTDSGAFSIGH
Source text: Generation of a Human P2X3 and P2X2/3 Stable Cell Line—Human P2X3 receptor cDNA (Accession number NM_002559) was subcloned as a 5′XhoI and 3′HindIII fragment into the expression vector pcDNA5/FRT (Invitrogen). Human P2X2 receptor cDNA (Accession number NM_174873) was subcloned as a 5′EcoRI and 3′NotI fragment into the expression vector pIRESneo2 (BD Biosciences Clontech). The human P2X3 expression construct was transfected using Lipofectamine 2000 (Invitrogen) into Ftp-in—293 cells (Invitrogen) according to the manufacturer's directions. Cells positive for flp-mediated recombination of […] P2X3 were selected using 150 μg/ml hygromycin. The stable human P2X3 cell line was co-transfected with the human P2X2 expression construct using Lipofectamine 2000 as above and co-transfected cells selected using […] hygromycin and 1 mg/ml G418. The stable P2X3 cell line was propagated in DMEM, 10% FBS, 100 μg/ml hygromycin, and 100 units/ml penicillin and 100 μg/ml streptomycin, and maintained at 37° and 95% humidity. The stable P2X213 cell line was propagated as above with the addition of 500 μg/ml G418.
Intracellular Calcium Measurement to Assess Antagonist Affinity—A fluorescent imaging plate reader (FLIPR; Molecular Devices) was used to monitor intracellular calcium levels using the calcium-chelating dye Fluo-4 (Molecular Probes). The excitation and emission wavelengths used to monitor fluorescence were 488 nm and 530 nm, respectively. Cells expressing either human P2X3 or human P2X2/3 were plated at a density of 20,000 cells/well (20 μl/well) in 384-well black-walled plates approximately 20 hours before beginning the assay. […] During this period fluorescence data is collected at 3 sec intervals followed by 10 sec intervals. […] Following agonist addition fluorescence was measured at 5 sec intervals and analyzed based on the increase in peak relative fluorescence units (RFU) compared to the basal fluorescence. Peak fluorescence was used to determine the inhibitory effect at each concentration of antagonist by the following equation: % Inhibition=100*(1−((RFU(drug)−RFU(control)/(RFU(DMSO only)−RFU(control)))) In vitro Electrophysiological Assay—Cells expressing human P2X3 receptors were grown to a confluence of 65-85% 20 to 32 hours prior to assay. The cells were dissociated with trypsin, centrifuged, and resuspended in bath solution at a cell density of 1×10^6 cells/ml and loaded onto PatchXpress. The bath solution contained 150 mM NaCl, 4 mM KCl, 2 mM CaCl2, 1.2 mM MgCl2, 10 mM HEPES, and 11.1 mM glucose, at pH 7.2. […]

Row | IC50 [nM] | SMILES
1 | 53 | C[C@@H](NC(=O)c1cn(-c2ccc(F)cn2)nc1-c1ccccc1)c1ccc(C(F)(F)F)[n+]([O-])c1 [Example 1.74, 1-(5-Fluoropyridin-2-yl)-N-{(1R)-1-[1-oxido-6-(trifluoromethyl)pyridin-3-yl]ethyl}-3-phenyl-1H-pyrazole-4-carboxamide]
2 | 84 | Cc1ccc(-c2nc(-c3ccccc3)c(C(=O)N[C@H](C)c3ccc(C(F)(F)F)[n+]([O-])c3)o2)nc1 [Example 2.5]
3 | 125 | C[C@@H](NC(=O)c1cn(-c2ccc(F)cn2)nc1-c1cnoc1)c1ccc(C(F)(F)F)[n+]([O-])c1 [Example 1.103]
4 | 34 | CC(C)Cc1nn(-c2ccc(F)cn2)cc1C(=O)N[C@H](C)c1ccc(C(F)(F)F)[n+]([O-])c1 [Example 1.109]
